{"source": "ChEMBL document CHEMBL1128919", "about": "“Synthesis and characterization of cyclic ATP-ribose: a potent mediator of calcium release” (Bioorg Med Chem Lett, 1996)", "organism": "Rattus norvegicus", "assay": "Half-maximal effective dose for inducing [Ca2+] release from rat brain microsomes", "assay_type": "functional", "data": [{"molecule": "N=c1c2ncn3c2ncn1[C@@H]1O[C@H](COP(=O)(O)OP(=O)(O)OP(=O)(O)OC[C@H]2O[C@@H]3[C@H](O)[C@@H]2O)[C@@H](O)[C@H]1O", "values": [{"measurement": "ED50", "value": 0.8, "unit": "µM"}]}]}
